For this experiment, the target named is T1, PLK1 (Homo sapiens, UniProt P53350).
T1 construct: Full-length, active GST-PLK1 is purified from Sf9 insect cells; made in house; host or cells: Sf9 insect cells
T1 sequence (P53350 whole entry): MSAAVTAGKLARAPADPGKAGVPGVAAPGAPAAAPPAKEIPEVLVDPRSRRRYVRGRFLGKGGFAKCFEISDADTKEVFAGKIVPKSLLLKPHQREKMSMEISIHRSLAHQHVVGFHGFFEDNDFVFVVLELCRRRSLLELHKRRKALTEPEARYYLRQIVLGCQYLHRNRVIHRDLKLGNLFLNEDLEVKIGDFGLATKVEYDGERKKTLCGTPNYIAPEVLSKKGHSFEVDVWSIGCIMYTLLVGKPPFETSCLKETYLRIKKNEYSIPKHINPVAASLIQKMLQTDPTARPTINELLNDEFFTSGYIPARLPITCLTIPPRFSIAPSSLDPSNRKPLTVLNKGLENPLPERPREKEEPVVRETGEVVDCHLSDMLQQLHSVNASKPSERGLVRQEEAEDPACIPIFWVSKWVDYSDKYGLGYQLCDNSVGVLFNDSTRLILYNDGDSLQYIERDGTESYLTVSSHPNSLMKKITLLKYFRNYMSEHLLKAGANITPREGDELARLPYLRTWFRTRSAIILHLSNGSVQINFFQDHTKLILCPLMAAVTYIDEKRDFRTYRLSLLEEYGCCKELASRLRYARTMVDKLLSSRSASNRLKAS
As to the kind of experiment: Biochemical Characterization Assay: HTRF kinase assay, GST-PLK1 phosphorylation of GST-p53. To be noted: GST-PLK1, GST-p53 substrate. In a few lines: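 Full-length active GST-PLK1 (Sf9, 3 ug/mL) phosphorylated full-length GST-p53 (E. coli) in Kinase Assay Buffer for 35 min at 37 °C. Stopped with EDTA; phospho-p53 detected by HTRF with anti-phospho-p53, Eu-anti-rabbit and APC-anti-GST antibodies.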
In turn, `COc1cc(C(=O)N[C@H]2CC[C@@H](N3CCN(CC4CC4)CC3)CC2)ccc1Nc1ncc2c(n1)N(C(C)C)CC(F)(F)C(=O)N2C` [Example I-301, N-[cis-4-(4-cyclopropylmethyl-piperazin-1-yl)-cyclohexyl]-4-(7,7-difluoro-9-isopropyl-5-methyl-6-oxo-6,7,8,9-tetrahydro-5H-pyrimido[4,5-b][1,4]diazepin-2-ylamino)-3-methoxy-benzamide] registered an IC50 of 0.001 to 0.05 µM.
The figure for `COc1cc(C(=O)N[C@H]2CC[C@H](N3CCN(CC4CC4)CC3)CC2)ccc1Nc1ncc2c(n1)N(C(C)C)CC(F)(F)C(=O)N2C` [Example I-302, N-[trans-4-(4-cyclopropylmethyl-piperazin-1-yl)-cyclohexyl]-4-(7,7-difluoro-9-isopropyl-5-methyl-6-oxo-6,7,8,9-tetrahydro-5H-pyrimido[4,5-b][1,4]diazepin-2-ylamino)-3-methoxy-benzamide] is 0.001 to 0.05 µM; for `COc1cc(C(=O)NC2CCN(C)CC2)ccc1Nc1ncc2c(n1)NCC(F)(F)C(=O)N2C` [Example I-303, 4-(7,7-difluoro-5-methyl-6-oxo-6,7,8,9-tetrahydro-5H-pyrimido[4,5-b][1,4]diazepin-2-ylamino)-3-methoxy-N-(1-methyl-piperidin-4-yl)-benzamide] it is 0.051 to 0.5 µM.
As for `COc1cc(C(=O)NC2CCN(C)CC2)ccc1Nc1ncc2c(n1)N(CCOc1ccccc1)CC(F)(F)C(=O)N2C` [Example I-304, 4-[7,7-difluoro-5-methyl-6-oxo-9-(2-phenoxy-ethyl)-6,7,8,9-tetrahydro-5H-pyrimido[4,5-b][1,4]diazepin-2-ylamino]-3-methoxy-N-(1-methyl-piperidin-4-yl)-benzamide], the figure is 0.051 to 0.5 µM.

The values are drawn from patent US8003785B2 (Takeda Pharmaceutical Company Limited, priority 2008, dated 2011).
